Assay results from ChEMBL document CHEMBL1909294, “Translating clinical findings into knowledge in drug safety evaluation--drug induced liver injury prediction system (DILIps)” (PLoS Comput Biol, 2011).

Columns and labels:
[1] = system: Hepatotoxicity;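 as to HepSE Combined Scores: combined hepatic side effect score as listed in the training data of the Drug Induced Liver Injury Prediction System (DILIps)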;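 as to HepSE elevated liver function tests: hepatic side effect score for raised liver function tests, as recorded in the DILIps training set used for predicting drug-induced liver injury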; as to HepSE hepatic failure: call rule not given here;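 as to HepSE hepatomegaly: hepatic side effect score for hepatomegaly, taken from the training set of the DILIps drug-induced liver injury prediction system; call rule not given here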;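 as to HepSE jaundice: Jaundice-related hepatic side-effect score drawn from the training data of the DILIps (drug-induced liver injury prediction system); call rule not given here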;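 as to HepSE liver fatty: hepatic side effect score for fatty liver, taken from the DILIps training set for predicting drug-induced liver injury; call rule not given here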;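 as to HepSE liver function tests abnormal: hepatic side effect score taken from the DILIps (drug-induced liver injury prediction system) training data, here covering abnormal liver function test findings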
[2] = system: Hepatotoxicity; remark: listed apart in the source;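 as to HepSE Combined Scores: combined hepatic side effect score as listed in the training data of the Drug Induced Liver Injury Prediction System (DILIps)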;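 as to HepSE elevated liver function tests: hepatic side effect score for raised liver function tests, as recorded in the DILIps training set used for predicting drug-induced liver injury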; as to HepSE hepatic failure: call rule not given here;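 as to HepSE jaundice: Jaundice-related hepatic side-effect score drawn from the training data of the DILIps (drug-induced liver injury prediction system); call rule not given here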;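 as to HepSE liver fatty: hepatic side effect score for fatty liver, taken from the DILIps training set for predicting drug-induced liver injury; call rule not given here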;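 as to HepSE liver function tests abnormal: hepatic side effect score taken from the DILIps (drug-induced liver injury prediction system) training data, here covering abnormal liver function test findings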
[3] = system: Hepatotoxicity; remark: listed apart in the source;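 as to HepSE Combined Scores: combined hepatic side effect score as listed in the training data of the Drug Induced Liver Injury Prediction System (DILIps)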;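 as to HepSE elevated liver function tests: hepatic side effect score for raised liver function tests, as recorded in the DILIps training set used for predicting drug-induced liver injury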; as to HepSE hepatic failure: call rule not given here;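 as to HepSE jaundice: Jaundice-related hepatic side-effect score drawn from the training data of the DILIps (drug-induced liver injury prediction system); call rule not given here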;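 as to HepSE liver fatty: hepatic side effect score for fatty liver, taken from the DILIps training set for predicting drug-induced liver injury; call rule not given here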;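 as to HepSE liver function tests abnormal: hepatic side effect score taken from the DILIps (drug-induced liver injury prediction system) training data, here covering abnormal liver function test findings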
[4] = system: Hepatotoxicity; remark: listed apart in the source;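 as to HepSE Combined Scores: combined hepatic side effect score as listed in the training data of the Drug Induced Liver Injury Prediction System (DILIps)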;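 as to HepSE elevated liver function tests: hepatic side effect score for raised liver function tests, as recorded in the DILIps training set used for predicting drug-induced liver injury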; as to HepSE hepatic failure: call rule not given here;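 as to HepSE jaundice: Jaundice-related hepatic side-effect score drawn from the training data of the DILIps (drug-induced liver injury prediction system); call rule not given here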;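 as to HepSE liver fatty: hepatic side effect score for fatty liver, taken from the DILIps training set for predicting drug-induced liver injury; call rule not given here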;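 as to HepSE liver function tests abnormal: hepatic side effect score taken from the DILIps (drug-induced liver injury prediction system) training data, here covering abnormal liver function test findings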
[5] = system: Hepatotoxicity; remark: listed apart in the source; as to HepSE hepatic failure: call rule not given here
[6] = system: Hepatotoxicity; remark: listed apart in the source; as to HepSE hepatic failure: call rule not given here
[7] = system: Hepatotoxicity; remark: listed apart in the source
[8] = system: Hepatotoxicity; remark: listed apart in the source
[9] = system: Hepatotoxicity; remark: listed apart in the source
[10] = system: Hepatotoxicity; remark: listed apart in the source
[11] = system: Hepatotoxicity; remark: listed apart in the source
[12] = system: Hepatotoxicity; remark: listed apart in the source
[13] = system: Hepatotoxicity; remark: listed apart in the source
[14] = system: Hepatotoxicity; remark: listed apart in the source

| SMILES | HepSE_liver function tests abnormal [1] | HepSE_hepatic failure [2] | HepSE_Combined Scores [3] | HepSE_jaundice [4] | HepSE_liver fatty [5] | HepSE_elevated liver function tests [6] | HepSE_hepatomegaly [7] | HepSE_cholelithiasis [8] | HepSE_hepatic necrosis [9] | HepSE_cholecystitis [10] | HepSE_bilirubinemia [11] | HepSE_liver disease [12] | HepSE_hepatitis [13] | HepSE_cirrhosis [14] |
| --- | --- | --- | --- | --- | --- | --- | --- | --- | --- | --- | --- | --- | --- | --- |
| CN1CC[C@]23c4c5ccc(O)c4O[C@H]2C(=O)CC[C@H]3[C@H]1C5 [HYDROMORPHONE] | 1 | 1 | 5 | 1 | 0 | 0 | 1 | 0 | 0 | 1 | 0 | 0 | 0 | 0 |
| Cc1c(C)c2c(c(C)c1O)CCC(C)(COc1ccc(CC3SC(=O)NC3=O)cc1)O2 (configuration not stated) [TROGLITAZONE] | 1 | 0 | 3 | 1 | 0 | 0 | 0 | 0 | 0 | 0 | 0 | 0 | 1 | 0 |
| C[C@@H](O)[C@H]1C(=O)N2C(C(=O)O)=C(S[C@@H]3CN[C@H](C(=O)N(C)C)C3)[C@H](C)[C@H]12 [MEROPENEM] | 0 | 1 | 3 | 1 | 0 | 0 | 0 | 0 | 0 | 0 | 0 | 0 | 1 | 0 |
| Nc1nc(N)c2nc(-c3ccccc3)c(N)nc2n1 | 0 | 0 | 1 | 1 | 0 | 0 | 0 | 0 | 0 | 0 | 0 | 0 | 0 | 0 |
| C[C@]12CCC(=O)C=C1CC[C@@H]1[C@@H]2[C@@H](O)C[C@@]2(C)[C@H]1CC[C@]2(O)C(=O)CO [HYDROCORTISONE] | 0 | 0 | 1 | 0 | 0 | 0 | 1 | 0 | 0 | 0 | 0 | 0 | 0 | 0 |
| COCC(=O)Nc1c(I)c(C(=O)NCC(O)CO)c(I)c(C(=O)N(C)CC(O)CO)c1I (configuration not stated) [IOPROMIDE] | 0 | 0 | 0 | 0 | 0 | 0 | 0 | 0 | 0 | 0 | 0 | 0 | 0 | 0 |
| CC1=NS(=O)(=O)c2cc(Cl)ccc2N1 [DIAZOXIDE] | 0 | 0 | 0 | 0 | 0 | 0 | 0 | 0 | 0 | 0 | 0 | 0 | 0 | 0 |
| NC(=O)C[S+]([O-])C(c1ccccc1)c1ccccc1 (configuration not stated) [MODAFINIL] | 0 | 0 | 0 | 0 | 0 | 0 | 0 | 0 | 0 | 0 | 0 | 0 | 0 | 0 |
| COc1c(C)c2c(c(O)c1C/C=C(\C)CCC(=O)O)C(=O)OC2 [MYCOPHENOLIC ACID] | 1 | 0 | 5 | 1 | 0 | 0 | 0 | 0 | 0 | 0 | 1 | 1 | 1 | 0 |
| FCOC(C(F)(F)F)C(F)(F)F [SEVOFLURANE] | 0 | 1 | 5 | 1 | 0 | 0 | 0 | 0 | 1 | 0 | 1 | 0 | 1 | 0 |
| O=c1[nH]cnc2c1ncn2[C@H]1CC[C@@H](CO)O1 [DIDANOSINE] | 0 | 1 | 4 | 0 | 1 | 0 | 1 | 0 | 0 | 0 | 0 | 0 | 1 | 0 |
| CCN(CC)CCOC(=O)c1ccc(N)cc1 [PROCAINE] | 0 | 0 | 0 | 0 | 0 | 0 | 0 | 0 | 0 | 0 | 0 | 0 | 0 | 0 |
| CO/N=C1\CN(c2nc3c(cc2F)c(=O)c(C(=O)O)cn3C2CC2)CC1CN (configuration not stated) [GEMIFLOXACIN] | 0 | 0 | 3 | 1 | 0 | 0 | 0 | 0 | 0 | 0 | 1 | 0 | 1 | 0 |
